ChEMBL document CHEMBL1122101, “Synthesis and tissue distribution study of iodine-labeled benzyl- and xylylamines” (J Med Chem, 1982)

Experiments:
Rattus norvegicus [1] = experiment: Evaluated for biodistribution in rat brain after 2 min of administration; assay type: ADME, organism-based; conditions: in vivo
Rattus norvegicus [2] = experiment: Evaluated for biodistribution in rat lung after 6 min of administration; assay type: ADME, organism-based; conditions: in vivo, 0.1 h
Rattus norvegicus [3] = experiment: Evaluated for biodistribution in rat blood after 6 min of administration; assay type: ADME, organism-based; conditions: in vivo, 0.1 h
Rattus norvegicus [4] = experiment: Evaluated for biodistribution in rat liver after 6 min of administration; assay type: ADME, organism-based; conditions: in vivo, 0.1 h
Rattus norvegicus [5] = experiment: Evaluated for biodistribution in rat kidney after 2 min of administration; assay type: ADME, organism-based; conditions: in vivo
Rattus norvegicus [6] = experiment: Evaluated for biodistribution in rat thyroid after 1 min of administration; assay type: ADME, organism-based, Thyroid gland; conditions: in vivo
Rattus norvegicus [7] = experiment: Evaluated for biodistribution in rat liver after 2 min of administration; assay type: ADME, organism-based; conditions: in vivo
Rattus norvegicus [8] = experiment: Evaluated for biodistribution in rat brain after 1 min of administration; assay type: ADME, organism-based; conditions: in vivo
Rattus norvegicus [9] = experiment: Evaluated for biodistribution in rat kidney after 6 min of administration; assay type: ADME, organism-based; conditions: in vivo, 0.1 h
Rattus norvegicus [10] = experiment: Evaluated for biodistribution in rat heart after 1 min of administration; assay type: ADME, organism-based; conditions: in vivo
Rattus norvegicus [11] = experiment: Evaluated for biodistribution in rat thyroid after 6 min of administration; assay type: ADME, organism-based, Thyroid gland; conditions: in vivo, 0.1 h
Rattus norvegicus [12] = experiment: Evaluated for biodistribution in rat blood after 1 min of administration; assay type: ADME, organism-based; conditions: in vivo
Rattus norvegicus [13] = experiment: Evaluated for biodistribution in rat kidney after 1 min of administration; assay type: ADME, organism-based; conditions: in vivo
Rattus norvegicus [14] = experiment: Evaluated for biodistribution in rat lung after 1 min of administration; assay type: ADME, organism-based; conditions: in vivo
Rattus norvegicus [15] = experiment: Evaluated for biodistribution in rat thyroid after 2 min of administration; assay type: ADME, organism-based, Thyroid gland; conditions: in vivo
Rattus norvegicus [16] = experiment: Evaluated for biodistribution in rat heart after 2 min of administration; assay type: ADME, organism-based; conditions: in vivo
Rattus norvegicus [17] = experiment: Evaluated for biodistribution in rat blood after 2 min of administration; assay type: ADME, organism-based; conditions: in vivo
Rattus norvegicus [18] = experiment: Evaluated for biodistribution in rat heart after 6 min of administration; assay type: ADME, organism-based; conditions: in vivo, 0.1 h
Rattus norvegicus [19] = experiment: Evaluated for biodistribution in rat lung after 2 min of administration; assay type: ADME, organism-based; conditions: in vivo
Rattus norvegicus [20] = experiment: Evaluated for biodistribution in rat brain after 6 min of administration; assay type: ADME, organism-based; conditions: in vivo, 0.1 h
Rattus norvegicus [21] = experiment: Evaluated for biodistribution in rat liver after 1 min of administration; assay type: ADME, organism-based; conditions: in vivo
[22] = Evaluated for the carrier level on brain uptake at 0.4 mg/kg dose in rat; assay type: ADME, organism-based; set-up: dose 0.4 mg/kg; conditions: in vivo
[23] = Evaluated for the carrier level on brain uptake at 4 mg/kg dose in rat; assay type: ADME, organism-based; set-up: dose 4 mg/kg; conditions: in vivo
[24] = Evaluated for the carrier level on brain uptake at 0.04 mg/kg dose in rat; assay type: ADME, organism-based; set-up: dose 0.04 mg/kg; conditions: in vivo
[25] = Evaluated for the carrier level on brain uptake at 40 mg/kg dose in rat; assay type: ADME, organism-based; set-up: dose 40 mg/kg; conditions: in vivo

Row | Structure (SMILES) | Biodistribution (Rattus norvegicus [1]) | Biodistribution (Rattus norvegicus [2]) | Biodistribution (Rattus norvegicus [3]) | Biodistribution (Rattus norvegicus [4]) | Biodistribution (Rattus norvegicus [5]) | Biodistribution (Rattus norvegicus [6]) | Biodistribution (Rattus norvegicus [7]) | Biodistribution (Rattus norvegicus [8]) | Biodistribution (Rattus norvegicus [9]) | Biodistribution (Rattus norvegicus [10]) | Biodistribution (Rattus norvegicus [11]) | Biodistribution (Rattus norvegicus [12]) | Biodistribution (Rattus norvegicus [13]) | Biodistribution (Rattus norvegicus [14]) | Biodistribution (Rattus norvegicus [15]) | Biodistribution (Rattus norvegicus [16]) | Biodistribution (Rattus norvegicus [17]) | Biodistribution (Rattus norvegicus [18]) | Biodistribution (Rattus norvegicus [19]) | Biodistribution (Rattus norvegicus [20]) | further results
1 | CN(C)Cc1ccccc1I | 2.42% | 0.04% | 0.35% | 0.45% | 10.12% | 0.01% | 11.81% | 0.07% | 0.34% | 0.06% | 0.035% | 1.35% | 1.03% | 0.19% | 0.11% | 0.59% | 7.01% | 0.014% | 2.9% | 0.022% | Biodistribution (Rattus norvegicus [21]): 1.92%
2 | CC(C)NCc1ccc(I)c(CNC(C)C)c1 | 0.62% | 8.71% | 1.33% | 5.17% | 6.93% | 0.27% | 10.22% | 0.64% | 3.4% | 1.99% | 0.45% | 1.76% | 6.71% | 13.02% | 0.18% | 2.18% | 6.42% | 0.83% | 31.98% | 0.59% | Biodistribution (Rattus norvegicus [21]): 8.38%
3 | CN(C)Cc1ccc(I)c(CN(C)C)c1 | 2.4% | 1.96% | 0.42% | 7.81% | 7.69% | 0.11% | 9.52% | 2.36% | 2.98% | 0.44% | 0.14% | 0.83% | 6.19% | 4.36% | 0.28% | 2.76% | 3.52% | 0.19% | 22.63% | 1.51% | Brain uptake [22]: 3.03%; Brain uptake [23]: 2.09%; Brain uptake [24]: 2.67%; Brain uptake [25]: 2.43%; Biodistribution (Rattus norvegicus [21]): 18.31%
4 | Ic1ccc(CN2CCCCC2)cc1CN1CCCCC1 | 1.7% | 1.75% | 0.77% | 9.2% | 7.33% | 0.15% | 12.5% | 1.47% | 1.97% | 0.51% | 0.11% | 1.6% | 7.75% | 6.65% | 0.22% | 3.19% | 4.11% | 0.18% | 26.54% | 0.7% | Biodistribution (Rattus norvegicus [21]): 13.51%
